Reference: patent US20160243271A1, “Essential Oils Or Volatile Organics Thereof Electrospun In Chitosan Nanofiber Mats” (UNIVERSITY OF MASSACHUSETTS, priority 2013, published 2016)
In brackets after ≈: the same amount, converted by molar mass.

How the values were obtained:
Escherichia coli S20918 = assay: Viability loss of E. coli, modified ASTM E2149-01 shake flask method; type: cell-based; settings: 3 mM CA solution
Experimental: (§1) The model organisms were Escherichia coli S20918 (E. coli) and P. aeruginosa S20930 (P. aeruginosa), purchased from Thermo Fisher Scientific, Waltham, Mass. The bacteria were grown in LB at 37.0 and harvested at a concentration of 10^8 cells/mL. To remove residual macromolecules and other growth medium constituents, cells were washed twice and then resuspended in an isotonic solution (0.9% NaCl, pH 5.7). This isotonic solution was used for E. coli and P. aeruginosa loss of viability studies.
The viability loss of E. coli in contact with chitosan/CA(0, 0.5, and 5.0%)/PEO nanofiber mats was assayed according to a modified ASTM E2149-01 shake flask method.^30 In parallel to each experiment (i) a blank control (no nanofiber mat) and (ii) an MIC control of CA for E. coli (3 mM CA in solution) were employed.^19 Electrospun mats (10 mm×20 mm) were placed into culture tubes (16 mm×125 mm) along with 4 mL suspensions of E. coli or P. aeruginosa (5×10^6 cells/mL) in an isotonic solution (0.9% NaCl, pH 5.7). The suspensions were shaken at 200 rpm in an orbital shaker maintained at 37° C. At 30, 90, and 180 minutes, 100 μL were pipetted out from the tubes and serial dilutions were plated onto LB plates using the spread plate method.^30-32 After 24 hr incubation on agar plates, the number of viable bacteria was counted. The number of viable cells was multiplied by the dilution factor and expressed as the mean colony forming unit (CFU) per mL. The percent reduction of bacteria resulting from contact with the nanofiber mats was determined using Equation 1 where A represents the mean log10 density of bacteria for the flask containing the treated substrate after the specified contact time and B represents the untreated substrate after the specified contact time.

P. aeruginosa S20930 = assay: Viability loss of P. aeruginosa, PI/DAPI fluorescence assay; type: cell-based, Pseudomonas aeruginosa
Experimental: as §1
Viability loss of P. aeruginosa in contact with chitosan/CA(0, 0.5, and 5.0%)/PEO nanofiber mats was determined using a previously described fluorescence assay.^33 Electrospun mats (20 mm×10 mm) were placed at the bottom of 35 mm×10 mm petri dishes (Becton, Dickinson & Co., Franklin Lakes, N.J.) to which the cells (10^7 cells/mL) resuspended in an isotonic solution were added and diluted by a factor of 2. The cells were incubated at 37° C. for various times (30, 90, and 180 min). […] Fluorescence images were acquired to detect the cells utilizing an epifluorescence microscope (Olympus) with a Chroma cube filter. […] Dead cells and the total number of cells were determined by direct cell counting. […] Throughout the Results and Discussion section, all statistical differences were determined using an unpaired t-test with values of p≦0.05 considered to be statistically significant.

E. coli = settings: CA in solution; cited from earlier work

For O=CC=Cc1ccccc1 [CA, cinnamaldehyde], which “E. coli inactivation compared with blank control” value (Escherichia coli S20918; no nanofiber mat) is on record?
The value was “statistically inactivated more E. coli than the blank control”.

And the “antibacterial activity against E. coli compared with nanofiber mats” value (Escherichia coli S20918; after 30 and 180 min)?
The value was “statistically lower level of antibacterial activity”.

And the “antibacterial activity against E. coli compared with nanofiber mats” value (Escherichia coli S20918; at 90 min)?
Its value is “statistically equivalent to the chitosan/CA(0.5%)/PEO nanofiber mats”.

What about the “P. aeruginosa inactivation, statistical comparison” value (P. aeruginosa S20930; after 30 min) of the same compound?
The value was “statistically equivalent”.

What about the “P. aeruginosa inactivation, statistical comparison” value (P. aeruginosa S20930; at 90 min) of the same compound?
The value was “statistically equivalent level as the chitosan/CA(0.5 and 5.0%)/PEO nanofiber mats”.

And the MIC (E. coli)?
The MIC was 3000 µM (≈ 396 µg/mL).
